The values that follow come from patent US11116754B2, “Inhibition of TOR complex 2 increases immunity against bacterial infection” (THE TRUSTEES OF COLUMBIA UNIVERSITY IN THE CITY OF NEW YORK, priority 2015, dated 2021).

In test [1] the test system is Burkholderia cepacia. The test is described as follows: Survival of flies after Burkholderia cepacia infection. The test is classed as in vivo, Drosophila. The note with it: relative to vehicle-fed controls, p<0.0001. Here is the method: Infections were performed as previously described (Schneider et al. 2007) with Burkholderia cepacia (ATCC strain #25416). Death was assayed visually the next day every hour or more frequently as needed. Survival curves are plotted as Kaplan-Meier graphs and log-rank analysis performed using GraphPad Prism. All infection experiments were performed with a minimum of 3 independent trials and yielded statistically similar results, except where noted. Graphs and p-values in figures are representative trials.
To directly test the role of TORC1 in survival of infection, TORC1 activity was inhibited in two ways. First, flies were injected with rapamycin, a TORC1-specific inhibitor (9.6 ng per fly, equivalent to the mammalian dose of 16 mg/kg (Lee et al. 2009; Loeweth et al. 2002)).
Wild type flies, 5-7 day old males, were fed two different concentrations (250 μM and 500 μM) of Torin (MedChem Express), a TORC1 and TORC2 inhibitor, for two days prior to infection with Burkholderia cepacia as described in Example 1. Controls were fed a vehicle.

The test system of test [2] is Burkholderia cepacia. Put plainly: Bacterial load quantitation after Burkholderia cepacia infection. The following applies: wild type flies fed Torin vs vehicle-fed flies. The test is classed as in vivo, Drosophila. The source says: Data are plotted with SEM.

Regarding Torin, the survival of infection result with Burkholderia cepacia [1] (wild type male flies fed 250 μM for two days prior to infection) and in the test with Burkholderia cepacia [1] (wild type male flies fed 500 μM for two days prior to infection) was “significantly increased” throughout. For the same substance, the bacterial load result with Burkholderia cepacia [2] is recorded as “not significant change”.
